Some results are limits rather than exact numbers.

The record followed here is patent US20250101028A1, “HETEROCYCLIC COMPOUNDS, COMPOSITIONS THEREOF, AND METHODS OF TREATMENT THEREWITH” (BeiGene, Ltd., priority 2022, published 2025).

For this test, the target named is T1, GST-tagged GDP-loaded KRAS G12V (amino acids 1-169) (Homo sapiens, UniProt P01116, G12V).
T1 construct: GST-tagged GDP-loaded KRAS G12V (amino acids 1-169); made in house; host or cells: E. coli
Kind of test: KRAS G12V probe displacement assay (TR-FRET). Format: binding. Conditions: displacement of biotinylated probe 2 from GDP-loaded KRAS G12V. On the procedure: KRAS WT and KRAS G12V Probe Displacement Assay
This assay was used to identify compounds which bind to GDP-loaded KRAS protein and are able to displace a biotinylated probe occupying the KRAS binding site. GST-tagged GDP-loaded WT KRAS (amino acids 1-169) and GST-tagged GDP-loaded KRAS G12V (amino acids 1-169) were expressed in E. coli and purified in house. All protein and reaction solutions were prepared in assay buffer containing 50 mM HEPES pH7.5, 50 mM NaCl, 1 mM MgCl2, 1 mM TCEP, 0.01% BSA, and 0.008% Brij-35. Purified WT KRAS (3 nM final concentration) or KRAS G12V protein (2 nM final concentration) was incubated with a 3-fold serially diluted compound in the assay plate (384 well microplate, black, Corning). Plates are incubated at 24° C. for 1 hr. Following the incubation, biotinylated probe 1 (60 nM final assay concentration) for WT KRAS and biotinylated probe 2 (2.5 nM final assay concentration) for KRAS G12V was added to the assay plate, respectively. After 1 hr incubation at 24° C., Mab Anti-GST-Tb cryptate (Cisbio) and Streptavidin-XL665 (Cisbio) were added and further incubated at 24° C. for another 1 hr. The TR-FRET signals (ex337 nm, em665 nm/620 nm) were read on BMG PHERAstar FSX instrument. The inhibition percentage of KRAS protein binding with biotinylated probe in presence of increasing concentrations of compounds was calculated based on the ratio of fluorescence at 665 nm to that at 620 nm. The IC50 value of each compound was calculated from fitting the data to the four-parameter logistic model by Dotmatics.

T1 sequence (P01116 1-169 isoform P01116-2 G12V): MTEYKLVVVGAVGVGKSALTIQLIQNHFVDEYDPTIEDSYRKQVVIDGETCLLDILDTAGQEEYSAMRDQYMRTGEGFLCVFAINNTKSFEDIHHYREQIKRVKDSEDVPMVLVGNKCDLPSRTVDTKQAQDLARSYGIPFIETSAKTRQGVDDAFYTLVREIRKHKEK

Consider `N#CCC1CN(c2nc(OC[C@@]34CCCN3C[C@H](F)C4)nc3c(F)c(-c4ccc(F)c5sc(N)nc45)c(C(F)(F)F)cc23)C1` [Example 40, 2-(1-(7-(2-amino-7-fluorobenzo[d]thiazol-4-yl)-8-fluoro-2-(((2R,7aS)-2-fluorotetrahydro-1H-pyrrolizin-7a(5H)-yl)methoxy)-6-(trifluoromethyl)quinazolin-4-yl)azetidin-3-yl)acetonitrile], for which the IC50 (usually the concentration at which inhibition is half-maximal) was 12 nM. In turn, `Nc1nc2c(-c3c(C(F)(F)F)cc4c(N[C@H]5C[C@@H](F)C5)nc(OC[C@@]56CCCN5C[C@H](F)C6)nc4c3F)ccc(F)c2s1` [Example 15, 7-fluoro-4-(8-fluoro-4-(((cis)-3-fluorocyclobutyl)amino)-2-(((2R,7aS)-2-fluorotetrahydro-1H-pyrrolizin-7a(5H)-yl)methoxy)-6-(trifluoromethyl)quinazolin-7-yl)benzo[d]thiazol-2-amine] displayed an IC50 of 17 nM. The same measure for `CC(=O)N1C[C@@H]2[C@H](C1)[C@H]2Nc1nc(OC[C@@]23CCCN2C[C@H](F)C3)nc2c(F)c(-c3ccc(F)c4sc(N)nc34)c(Cl)cc12` [Example 30, 1-((1R,5S,6s)-6-((7-(2-amino-7-fluorobenzo[d]thiazol-4-yl)-6-chloro-8-fluoro-2-(((2R,7aS)-2-fluorotetrahydro-1H-pyrrolizin-7a(5H)-yl)methoxy)quinazolin-4-yl)amino)-3-azabicyclo[3.1.0]hexan-3-yl)ethan-1-one]: 3.5 nM; for `Nc1nc2c(-c3c(C(F)(F)F)cc4c(N[C@H]5C[C@@H](CO)C5)nc(OC[C@@]56CCCN5C[C@H](F)C6)nc4c3F)ccc(F)c2s1` [Example 20, ((cis)-3-((7-(2-amino-7-fluorobenzo[d]thiazol-4-yl)-8-fluoro-2-(((2R,7aS)-2-fluorotetrahydro-1H-pyrrolizin-7a(5H)-yl)methoxy)-6-(trifluoromethyl)quinazolin-4-yl)amino)cyclobutyl)methanol]: 7.9 nM; for `COc1cc(N)nc(-c2c(Cl)cc3c(N4CCC(C#N)CC4)nc(OC[C@@]45CCCN4C[C@H](F)C5)nc3c2F)c1C(F)(F)F` [Example 108, 1-(7-(6-amino-4-methoxy-3-(trifluoromethyl)pyridin-2-yl)-6-chloro-8-fluoro-2-(((2R,7aS)-2-fluorotetrahydro-1H-pyrrolizin-7a(5H)-yl)methoxy)quinazolin-4-yl)piperidine-4-carbonitrile]: greater than 1000 nM. In the case of `CC(=O)N1C[C@@H]2[C@H](C1)[C@H]2Nc1nc(OC[C@@]23CCCN2C[C@H](F)C3)nc2c(F)c(-c3ccc(F)c4sc(N)nc34)c(C(F)(F)F)cc12` [Example 9, 1-((1R,5S,6s)-6-((7-(2-amino-7-fluorobenzo[d]thiazol-4-yl)-8-fluoro-2-(((2R,7aS)-2-fluorotetrahydro-1H-pyrrolizin-7a(5H)-yl)methoxy)-6-(trifluoromethyl)quinazolin-4-yl)amino)-3-azabicyclo[3.1.0]hexan-3-yl)ethan-1-one], the half-maximal inhibitory concentration (IC50) was found to be 2.5 nM. The same measure for `Nc1nc2c(-c3c(C(F)(F)F)cc4c(N5CCC6(CCNC6=O)CC5)nc(OC[C@@]56CCCN5C[C@H](F)C6)nc4c3F)ccc(F)c2s1` [Example 95, 8-(7-(2-amino-7-fluorobenzo[d]thiazol-4-yl)-8-fluoro-2-(((2R,7aS)-2-fluorotetrahydro-1H-pyrrolizin-7a(5H)-yl)methoxy)-6-(trifluoromethyl)quinazolin-4-yl)-2,8-diazaspiro[4.5]decan-1-one]: 2.7 nM; for `Nc1nc2c(-c3c(Cl)cc4c(NC5CCC5)nc(OC[C@@]56CCCN5C[C@H](F)C6)nc4c3F)ccc(F)c2s1` [Example 31, 4-(6-chloro-4-(cyclobutylamino)-8-fluoro-2-(((2R,7aS)-2-fluorotetrahydro-1H-pyrrolizin-7a(5H)-yl)methoxy)quinazolin-7-yl)-7-fluorobenzo[d]thiazol-2-amine]: 57 nM. The same measure for `CC1CN(c2nc(OC[C@@]34CCCN3C[C@H](F)C4)nc3c(F)c(-c4ccc(F)c5sc(N)nc45)c(C(F)(F)F)cc23)CCC1C#N` (stereo partly drawn) [Example 73, 1-(7-(2-amino-7-fluorobenzo[d]thiazol-4-yl)-8-fluoro-2-(((2R,7aS)-2-fluorotetrahydro-1H-pyrrolizin-7a(5H)-yl)methoxy)-6-(trifluoromethyl)quinazolin-4-yl)-3-methylpiperidine-4-carbonitrile]: 6.8 nM; for `CC1C(O)CN1c1nc(OC[C@@]23CCCN2C[C@H](F)C3)nc2c(F)c(-c3ccc(F)c4sc(N)nc34)c(C(F)(F)F)cc12` (stereo partly drawn) [Example 47, 1-(7-(2-amino-7-fluorobenzo[d]thiazol-4-yl)-8-fluoro-2-(((2R,7aS)-2-fluorotetrahydro-1H-pyrrolizin-7a(5H)-yl)methoxy)-6-(trifluoromethyl)quinazolin-4-yl)-2-methylazetidin-3-ol]: 1.9 nM. For the molecule `CO[C@H]1C[C@H](Nc2nc(OC[C@@]34CCCN3C[C@H](F)C4)nc3c(F)c(-c4ccc(F)c5sc(N)nc45)c(C(F)(F)F)cc23)C1` [Example 14, 7-fluoro-4-(8-fluoro-2-(((2R,7aS)-2-fluorotetrahydro-1H-pyrrolizin-7a(5H)-yl)methoxy)-4-(((trans)-3-methoxycyclobutyl)amino)-6-(trifluoromethyl)quinazolin-7-yl)benzo[d]thiazol-2-amine], the concentration for half-maximal inhibition (IC50) was found to be 13 nM. Consider `C[C@]1(O)CCCN(c2nc(OC[C@@]34CCCN3C[C@H](F)C4)nc3c(F)c(-c4ccc(F)c5sc(N)nc45)c(C(F)(F)F)cc23)C1` [Example 79, (3S)-1-(7-(2-amino-7-fluorobenzo[d]thiazol-4-yl)-8-fluoro-2-(((2R,7aS)-2-fluorotetrahydro-1H-pyrrolizin-7a(5H)-yl)methoxy)-6-(trifluoromethyl)quinazolin-4-yl)-3-methylpiperidin-3-ol], for which the 50% inhibitory concentration (IC50) came to 28 nM.

Take `C[C@H]1COC[C@H](C)N1c1nc(OC[C@@]23CCCN2C[C@H](F)C3)nc2c(F)c(-c3cc(N)cc(Cl)c3C(F)(F)F)ncc12` [Example 118, 3-chloro-5-(4-((3S,5S)-3,5-dimethylmorpholino)-8-fluoro-2-(((2R,7aS)-2-fluorotetrahydro-1H-pyrrolizin-7a(5H)-yl)methoxy)pyrido[4,3-d]pyrimidin-7-yl)-4-(trifluoromethyl)aniline]: the IC50 was determined as 23 nM. The figure for `Nc1nc2c(-c3c(C(F)(F)F)cc4c(N5CCC6(CC5)CN(CC(F)(F)F)C(=O)O6)nc(OC[C@@]56CCCN5C[C@H](F)C6)nc4c3F)ccc(F)c2s1` [Example 91, 8-(7-(2-amino-7-fluorobenzo[d]thiazol-4-yl)-8-fluoro-2-(((2R,7aS)-2-fluorotetrahydro-1H-pyrrolizin-7a(5H)-yl)methoxy)-6-(trifluoromethyl)quinazolin-4-yl)-3-(2,2,2-trifluoroethyl)-1-oxa-3,8-diazaspiro[4.5]decan-2-one] is 3.8 nM; for `Nc1nc2c(-c3c(C(F)(F)F)cc4c(N5CCC(F)(F)C5)nc(OC[C@@]56CCCN5C[C@H](F)C6)nc4c3F)ccc(F)c2s1` [Example 53, 4-(4-(3,3-difluoropyrrolidin-1-yl)-8-fluoro-2-(((2R,7aS)-2-fluorotetrahydro-1H-pyrrolizin-7a(5H)-yl)methoxy)-6-(trifluoromethyl)quinazolin-7-yl)-7-fluorobenzo[d]thiazol-2-amine] it is 12 nM; for `Nc1cc(Cl)c(C(F)(F)F)c(-c2ncc3c(N4CCOCC4)nc(OC[C@@]45CCCN4C[C@H](F)C5)nc3c2F)c1` [Example 113, 3-chloro-5-(8-fluoro-2-(((2R,7aS)-2-fluorotetrahydro-1H-pyrrolizin-7a(5H)-yl)methoxy)-4-morpholinopyrido[4,3-d]pyrimidin-7-yl)-4-(trifluoromethyl)aniline] it is 11 nM. The figure for `Nc1nc2c(-c3c(C(F)(F)F)cc4c(N5CC(F)(F)C5)nc(OC[C@@]56CCCN5C[C@H](F)C6)nc4c3F)ccc(F)c2s1` [Example 38, 4-(4-(3,3-difluoroazetidin-1-yl)-8-fluoro-2-(((2R,7aS)-2-fluorotetrahydro-1H-pyrrolizin-7a(5H)-yl)methoxy)-6-(trifluoromethyl)quinazolin-7-yl)-7-fluorobenzo[d]thiazol-2-amine] is 25 nM; for `Nc1nc2c(-c3c(C(F)(F)F)cc4c(NC5CCC5)nc(OC[C@@]56CCCN5C[C@H](F)C6)nc4c3F)ccc(F)c2s1` [Example 10, 4-(4-(cyclobutylamino)-8-fluoro-2-(((2R,7aS)-2-fluorotetrahydro-1H-pyrrolizin-7a(5H)-yl)methoxy)-6-(trifluoromethyl)quinazolin-7-yl)-7-fluorobenzo[d]thiazol-2-amine] it is 19 nM; for `Cc1cc(N)nc(-c2c(Cl)cc3c(N4CCC(C#N)CC4)nc(OC[C@@]45CCCN4C[C@H](F)C5)nc3c2F)c1C(F)(F)F` [Example 103, 1-(7-(6-amino-4-methyl-3-(trifluoromethyl)pyridin-2-yl)-6-chloro-8-fluoro-2-(((2R,7aS)-2-fluorotetrahydro-1H-pyrrolizin-7a(5H)-yl)methoxy)quinazolin-4-yl)piperidine-4-carbonitrile] it is 11 nM.
